BindingDB's records for doi:10.1021/jm00087a004 (Harvard Medical School, 1992)

Assays:
[1] = Binding affinity towards Opioid receptor delta 1
[2] = Binding affinity towards Opioid receptor delta 1; remark: listed apart in the source

Q: With `CN1CCC2(c3cccc(O)c3)CCCC1[C@@H]2O` (stereo partly drawn) as the molecule, how does the Ki [1] read?
A: > 0.5 µM

Q: For `CN1CCC2(c3cccc(O)c3)CCCC1[C@H]2O` (stereo partly drawn), which Ki [1] is on record?
A: 0.42 µM

Q: Which Ki [2] does the source give for `CN1CCC2(c3cccc(O)c3)CCCC1C2` (stereo not drawn) here?
A: > 0.5 µM
